For the test, the target named is human F508del-CFTR (Homo sapiens, UniProt P13569, DEL508-508). In words: F508del-CFTR cell surface expression (corrector activity), DiscoveRx ß-galactosidase complementation chemiluminescence assay in recombinant U2OS cell line.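 On all read-outs here: U2OS cells co-expressing ProLink-tagged F508del-CFTR and a membrane-anchored enzyme acceptor, where more surface CFTR restores β-galactosidase activity measured by chemiluminescence.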 As to conditions: for EC50: EC50, F508del-CFTR cell surface expression, U2OS cells, 16h compound incubation, geomean values; for Emax: U2OS, in relation to Emax of corrector lumacaftor (=100%), arithmetic mean values.
Chain of human F508del-CFTR (P13569 with tags, fused parts or gaps DEL508-508): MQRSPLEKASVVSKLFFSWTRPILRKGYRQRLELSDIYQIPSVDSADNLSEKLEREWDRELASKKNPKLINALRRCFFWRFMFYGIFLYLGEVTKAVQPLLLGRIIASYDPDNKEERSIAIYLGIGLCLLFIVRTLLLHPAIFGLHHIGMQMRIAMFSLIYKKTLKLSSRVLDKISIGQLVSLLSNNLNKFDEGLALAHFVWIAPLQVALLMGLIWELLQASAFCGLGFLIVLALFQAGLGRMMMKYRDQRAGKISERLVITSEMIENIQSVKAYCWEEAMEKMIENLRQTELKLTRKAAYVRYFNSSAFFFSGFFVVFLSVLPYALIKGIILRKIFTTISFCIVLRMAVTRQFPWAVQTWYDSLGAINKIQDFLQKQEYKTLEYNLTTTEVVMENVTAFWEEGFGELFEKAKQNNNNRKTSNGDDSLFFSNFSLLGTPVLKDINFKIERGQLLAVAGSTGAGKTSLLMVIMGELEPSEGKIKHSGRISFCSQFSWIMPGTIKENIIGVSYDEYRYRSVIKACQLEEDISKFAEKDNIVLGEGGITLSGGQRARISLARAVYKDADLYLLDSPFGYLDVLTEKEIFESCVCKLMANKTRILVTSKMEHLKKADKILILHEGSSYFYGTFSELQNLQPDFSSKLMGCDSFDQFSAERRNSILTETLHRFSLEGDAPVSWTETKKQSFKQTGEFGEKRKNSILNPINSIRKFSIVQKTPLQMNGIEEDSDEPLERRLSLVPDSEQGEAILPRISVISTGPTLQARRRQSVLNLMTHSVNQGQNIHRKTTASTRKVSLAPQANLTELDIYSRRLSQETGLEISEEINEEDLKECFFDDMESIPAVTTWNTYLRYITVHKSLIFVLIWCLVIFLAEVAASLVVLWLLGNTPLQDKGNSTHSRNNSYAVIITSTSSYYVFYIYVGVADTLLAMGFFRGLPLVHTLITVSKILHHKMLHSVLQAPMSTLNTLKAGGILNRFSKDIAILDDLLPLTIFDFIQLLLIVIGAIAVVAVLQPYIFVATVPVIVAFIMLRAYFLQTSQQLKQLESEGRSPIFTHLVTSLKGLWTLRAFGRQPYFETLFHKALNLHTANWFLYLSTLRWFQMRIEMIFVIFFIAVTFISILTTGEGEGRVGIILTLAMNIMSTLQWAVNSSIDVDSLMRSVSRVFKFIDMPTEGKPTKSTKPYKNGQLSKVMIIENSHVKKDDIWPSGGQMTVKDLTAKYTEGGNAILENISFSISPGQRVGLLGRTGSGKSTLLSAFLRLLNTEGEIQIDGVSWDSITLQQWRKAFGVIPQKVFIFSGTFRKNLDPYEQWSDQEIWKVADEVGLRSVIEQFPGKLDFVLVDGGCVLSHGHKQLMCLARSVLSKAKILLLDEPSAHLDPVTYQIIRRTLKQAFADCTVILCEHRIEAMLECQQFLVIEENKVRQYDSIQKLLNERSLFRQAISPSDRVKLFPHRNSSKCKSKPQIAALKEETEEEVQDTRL

`[2H]C([2H])([2H])Oc1nc(C)cc2c1C(=O)N[C@H](C(=O)NCCc1cc(OC)no1)CC(=O)N(C)[C@@H](CC(C)C)C(=O)N1CCCC[C@@H]1C(=O)N[C@H](Cc1ccccc1)CO2` [Example 581, (7S,11S,17aR,20R)-20-benzyl-11-isobutyl-4-(methoxy-d3)-N-(2-(3-methoxyisoxazol-5-yl)ethyl)-2,10-dimethyl-5,9,12,18-tetraoxo-5,6,7,8,9,10,11,12,15,16,17,17a,18,19,20,21-hexadecahydro-14H-dipyrido[2,1-f:3′,4′-p][1]oxa[4,7,10,14]tetraazacycloheptadecine-7-carboxamide]: the concentration giving a half-maximal response (EC50) amounted to 300 nM and the Emax is 303%.
Taken in the same sequence, the figures for `COc1cc(CCNC(=O)[C@@H]2CC(=O)N(C)[C@@H](CC(C)C)C(=O)N(CCC3CCCCC3)CC(=O)N[C@H](Cc3ccccc3)COc3ccnc(OC)c3C(=O)N2)on1` [Example 582, (3R,9S,13S)-3-benzyl-7-(2-cyclohexylethyl)-9-isobutyl-16-methoxy-N-(2-(3-methoxyisoxazol-5-yl)ethyl)-10-methyl-5,8,11,15-tetraoxo-2,3,4,5,6,7,8,9,10,11,12,13,14,15-tetradecahydropyrido[3,4-p][1]oxa[4,7,10,14]tetraazacycloheptadecine-13-carboxamide] were 116 nM and 279%.
Taken in the same sequence, the figures for `Cc1ccc2c(c1)OC[C@@H](Cc1ccccc1)NC(=O)CN(C)C(=O)[C@H](CC(C)C)N(C)C(=O)C[C@@H](C(=O)NCCc1ccc3c(c1)OCO3)NC2=O` [Example 583, (3R,9S,13S)-N-(2-(benzo[d][1,3]dioxol-5-yl)ethyl)-3-benzyl-9-isobutyl-7,10,18-trimethyl-5,8,11,15-tetraoxo-2,3,4,5,6,7,8,9,10,11,12,13,14,15-tetradecahydrobenzo[p][1]oxa[4,7,10,14]tetraazacycloheptadecine-13-carboxamide] were 339 nM and 90%.
Taken in the same sequence, the figures for `COc1cccc(CCNC(=O)[C@@H]2CC(=O)N(C)[C@@H](CC(C)C)C(=O)N3CC[C@@H](C3)C(=O)N[C@H](Cc3ccccc3)COc3ccc(OC)cc3C(=O)N2)c1` [Example 584, (13S,4R,10S,14S)-4-benzyl-14-isobutyl-74-methoxy-N-(3-methoxyphenethyl)-13-methyl-2,8,12,15-tetraoxo-6-oxa-3,9,13-triaza-1(3,1)-pyrrolidina-7(1,2)-benzenacyclopentadecaphane-10-carboxamide] were 575 nM and 156%.
Regarding `COc1cc2c(cc1OC)C(=O)N[C@H](C(=O)NCCc1ccc3c(c1)OCO3)CC(=O)N(C)[C@@H](CC(C)C)C(=O)N(CCC1CCCCC1)CC(=O)N[C@H](Cc1ccccc1)CO2` [Example 585, (3R,9S,13S)-N-(2-(benzo[d][1,3]dioxol-5-yl)ethyl)-3-benzyl-7-(2-cyclohexylethyl)-9-isobutyl-17,18-dimethoxy-10-methyl-5,8,11,15-tetraoxo-2,3,4,5,6,7,8,9,10,11,12,13,14,15-tetradecahydrobenzo[p][1]oxa[4,7,10,14]tetraazacycloheptadecine-13-carboxamide], the EC50 is 176 nM and the maximal effect (Emax) stood at 168%.
Taken in the same sequence, the figures for `COc1cccc(CCNC(=O)[C@@H]2CC(=O)N(C)[C@@H](CC(C)C)C(=O)N(CCC3CCCCC3)CC(=O)N[C@H](Cc3ccccc3)COc3cc(OC)c(OC)cc3C(=O)N2)c1` [Example 586, (3R,9S,13S)-3-benzyl-7-(2-cyclohexylethyl)-9-isobutyl-17,18-dimethoxy-N-(3-methoxyphenethyl)-10-methyl-5,8,11,15-tetraoxo-2,3,4,5,6,7,8,9,10,11,12,13,14,15-tetradecahydrobenzo[p][1]oxa[4,7,10,14]tetraazacycloheptadecine-13-carboxamide] were 221 nM and 165%.
Taken in the same sequence, the figures for `COc1cccc(CCNC(=O)[C@@H]2CC(=O)N(C)[C@@H](CC(C)C)C(=O)N3CCCC[C@@H]3C(=O)N[C@H](Cc3ccccc3)COc3ccc(OC)cc3C(=O)N2)c1` [Example 587, (7S,11S,20R,22aR)-20-benzyl-7-isobutyl-15-methoxy-N-(3-methoxyphenethyl)-8-methyl-6,9,13,22-tetraoxo-1,3,4,6,7,8,9,10,11,12,13,19,20,21,22,22a-hexadecahydro-2H-benzo[p]pyrido[2,1-f][1]oxa[4,7,10,14]tetraazacycloheptadecine-11-carboxamide] were 414 nM and 106%.
In the case of `COc1cccc(CCNC(=O)[C@@H]2CC(=O)N(C)[C@@H](CC(C)C)C(=O)N3CCOC[C@@H]3C(=O)N[C@H](Cc3ccccc3)COc3ccc(OC)cc3C(=O)N2)c1` [Example 588, (7S,11S,20R,22aR)-20-benzyl-7-isobutyl-15-methoxy-N-(3-methoxyphenethyl)-8-methyl-6,9,13,22-tetraoxo-1,3,4,6,7,8,9,10,11,12,13,19,20,21,22,22a-hexadecahydrobenzo[p][1,4]oxazino[3,4-f][1]oxa[4,7,10,14]tetraazacycloheptadecine-11-carboxamide], the EC50 amounted to 650 nM and the Emax amounted to 102%.
Taken in the same sequence, the figures for `CC(C)C[C@H]1C(=O)N(CCC2CCCCC2)CC(=O)N[C@H](Cc2ccccc2)COc2ccncc2C(=O)N[C@H](C(=O)NCCc2ccc3c(c2)OCO3)CC(=O)N1C` [Example 589, (3R,9S,13S)-N-(2-(benzo[d][1,3]dioxol-5-yl)ethyl)-3-benzyl-7-(2-cyclohexylethyl)-9-isobutyl-10-methyl-5,8,11,15-tetraoxo-2,3,4,5,6,7,8,9,10,11,12,13,14,15-tetradecahydropyrido[3,4-p][1]oxa[4,7,10,14]tetraazacycloheptadecine-13-carboxamide] were 298 nM and 160%.
Taken in the same sequence, the figures for `COc1cccc(CCNC(=O)[C@@H]2CC(=O)N(C)[C@@H](CC(C)C)C(=O)N(CCC3CCCCC3)CC(=O)N[C@H](Cc3ccccc3)COc3ccncc3C(=O)N2)c1` [Example 590, (3R,9S,13S)-3-benzyl-7-(2-cyclohexylethyl)-9-isobutyl-N-(3-methoxyphenethyl)-10-methyl-5,8,11,15-tetraoxo-2,3,4,5,6,7,8,9,10,11,12,13,14,15-tetradecahydropyrido[3,4-p][1]oxa[4,7,10,14]tetraazacycloheptadecine-13-carboxamide] were 362 nM and 201%.
Taken in the same sequence, the figures for `COc1cccc(CCNC(=O)[C@@H]2CC(=O)N(C)[C@@H](CC(C)C)C(=O)N3CCCC[C@@H]3C(=O)N[C@H](Cc3ccccc3)COc3cccc(OC)c3C(=O)N2)c1` [Example 591, (7S,11S,20R,22aR)-20-benzyl-7-isobutyl-14-methoxy-N-(3-methoxyphenethyl)-8-methyl-6,9,13,22-tetraoxo-1,3,4,6,7,8,9,10,11,12,13,19,20,21,22,22a-hexadecahydro-2H-benzo[p]pyrido[2,1-f][1]oxa[4,7,10,14]tetraazacycloheptadecine-11-carboxamide] were 341 nM and 259%.
Regarding `CC(C)C[C@H]1C(=O)N2CCCC[C@H]2C(=O)N[C@H](Cc2ccccc2)COc2ccncc2C(=O)N[C@H](C(=O)NCCc2ccc3c(c2)OCC3)CC(=O)N1C` [Example 592, (7S,11S,17aS,20R)-20-benzyl-N-(2-(2,3-dihydrobenzofuran-6-yl)ethyl)-11-isobutyl-10-methyl-5,9,12,18-tetraoxo-5,6,7,8,9,10,11,12,15,16,17,17a,18,19,20,21-hexadecahydro-14H-dipyrido[2,1-f:3′,4′-p][1]oxa[4,7,10,14]tetraazacycloheptadecine-7-carboxamide], the EC50 came to 881 nM and the Emax amounted to 119%.
Taken in the same sequence, the figures for `CC(C)C[C@H]1C(=O)N2CCCC[C@@H]2C(=O)N[C@H](Cc2ccccc2)COc2ccncc2C(=O)N[C@H](C(=O)NCCc2ccc3c(c2)OCC3)CC(=O)N1C` [Example 593, (7S,11S,17aR,20R)-20-benzyl-N-(2-(2,3-dihydrobenzofuran-6-yl)ethyl)-11-isobutyl-10-methyl-5,9,12,18-tetraoxo-5,6,7,8,9,10,11,12,15,16,17,17a,18,19,20,21-hexadecahydro-14H-dipyrido[2,1-f:3′,4′-p][1]oxa[4,7,10,14]tetraazacycloheptadecine-7-carboxamide] were 614 nM and 190%.
Taken in the same sequence, the figures for `CC(C)C[C@H]1C(=O)N2CCCC[C@@H]2C(=O)N[C@H](Cc2ccccc2)COc2ccncc2C(=O)N[C@H](C(=O)NCCc2ccc3c(c2)OCCO3)CC(=O)N1C` [Example 594, (7S,11S,17aR,20R)-20-benzyl-N-(2-(2,3-dihydrobenzo[b][1,4]dioxin-6-yl)ethyl)-11-isobutyl-10-methyl-5,9,12,18-tetraoxo-5,6,7,8,9,10,11,12,15,16,17,17a,18,19,20,21-hexadecahydro-14H-dipyrido[2,1-f:3′,4′-p][1]oxa[4,7,10,14]tetraazacycloheptadecine-7-carboxamide] were 810 nM and 171%.
Taken in the same sequence, the figures for `COc1cccc(CCNC(=O)[C@@H]2CC(=O)N(C)[C@@H](CC(C)C)C(=O)N(C)CC(=O)N[C@H](Cc3ccccc3)COc3ccc4ccccc4c3C(=O)N2)c1` [Example 595, (3S,7S,13R)-13-benzyl-7-isobutyl-N-(3-methoxyphenethyl)-6,9-dimethyl-1,5,8,11-tetraoxo-1,2,3,4,5,6,7,8,9,10,11,12,13,14-tetradecahydronaphtho[1,2-p][1]oxa[4,7,10,14]tetraazacycloheptadecine-3-carboxamide] were 332 nM and 233%.
As to `COc1cc2c(cc1OC)C(=O)N[C@H](C(=O)NCCc1ccc3c(c1)OCCC3)CC(=O)N(C)[C@@H](CC(C)C)C(=O)N(CCC1CCCCC1)CC(=O)N[C@H](Cc1ccccc1)CO2` [Example 596, (3R,9S,13S)-3-benzyl-N-(2-(chroman-7-yl)ethyl)-7-(2-cyclohexylethyl)-9-isobutyl-17,18-dimethoxy-10-methyl-5,8,11,15-tetraoxo-2,3,4,5,6,7,8,9,10,11,12,13,14,15-tetradecahydrobenzo[p][1]oxa[4,7,10,14]tetraazacycloheptadecine-13-carboxamide], the EC50 turned out to be 167 nM and the Emax stood at 195%.

A word on the EC50: it is the midpoint of the concentration-response curve. A word on the Emax: it is the size of the effect at its maximum, as opposed to the concentration needed.

Source of the values: US20240208992A1, “MACROCYCLES AS CFTR MODULATORS” (Idorsia Pharmaceuticals Ltd, priority 2021, published 2024).
